Results from US11802120B2, “Fused cyclic urea derivatives as CRHR2 antagonist” (RaQualia Pharma Inc., priority 2018, dated 2023).

biological target: T1, human CRHR2-alpha (Homo sapiens, UniProt Q13324); assay: cAMP functional assay for human CRHR2 (LANCE Ultra cAMP, TR-FRET); format: cell-based; conditions: CHO-K1 cells expressing human CRHR2-alpha, agonist human urocortin2 at EC80, cAMP; read-out: IC50 against CRHR2
T1 sequence (Q13324 1-411): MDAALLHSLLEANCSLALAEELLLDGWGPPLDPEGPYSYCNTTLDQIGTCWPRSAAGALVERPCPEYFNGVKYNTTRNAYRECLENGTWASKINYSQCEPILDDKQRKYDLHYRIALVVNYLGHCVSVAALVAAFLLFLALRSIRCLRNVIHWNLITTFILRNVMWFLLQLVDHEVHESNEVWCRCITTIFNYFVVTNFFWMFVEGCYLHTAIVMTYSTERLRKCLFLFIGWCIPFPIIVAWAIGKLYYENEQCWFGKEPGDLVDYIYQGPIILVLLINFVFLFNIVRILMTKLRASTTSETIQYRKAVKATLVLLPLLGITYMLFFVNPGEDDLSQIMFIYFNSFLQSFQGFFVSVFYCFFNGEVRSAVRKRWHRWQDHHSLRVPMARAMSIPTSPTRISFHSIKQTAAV
Protocol: cAMP functional assay for human CRHR1 and CRHR2
The ability of the compounds of this invention to inhibit either CRHR2 or CRHR1 is assessed by 3′,5′-cyclic adenosine monophosphate (cAMP) production in cells using the LANCE Ultra cAMP assay kit (ParkinElmer), which are designed based on the homogeneous time-resolved fluorescence resonance energy transfer (TR-FRET) immunoassay.
CHO-K1 (Chinese hamster ovary) cells stably expressing either human CRHR2-alpha (DiscoveRX, Cat. 95-0048C2) or human CRHR1-beta (DiscoveRX, Cat. 95-0047C2) are grown in HAM's F12 media supplemented with 10% fetal bovine serum (FBS), 100 units/mL penicillin, 100 microg/mL hygromycin and 0.5 microg/mL geneticin at 37° C. in 5% CO2 humidified incubator to 80% confluence. After 7 hours starvation treatment in culture media containing 0.1% FBS, the cells are washed with Hanks balanced salt solution (HBSS) and cryopreserved.
For cAMP assay, frozen cells are thawed and washed with HBSS, followed by resuspended in assay buffer (HBSS containing 0.1% bovine serum albumin, 0.5 mM isobutylmethylxanthine and 5 mM Hepes, pH 7.4) at the appropriate concentration for the assay. The cell suspensions are plated on 384-well microplates (Greiner Bio-One) at a density of 4,000 cells per well. After preincubating the cells with various concentrations of the compounds for 30 min at 25° C., an assay buffer containing EC80 concentration of each agonist is added and the cells are incubated for 30 min at 25° C. Human urocortin2 (Peptide Institute) and CRF (Peptide Institute) are used as agonists for CRHR2 and CRHR1, respectively. For the termination of assay, europium-labeled cAMP tracer and ULight (registered trademark) dye labeled cAMP antibodies, both prepared with Lance-Ultra cAMP detection reagent (Perkin Elmer) are added in the plate and incubate for 60 min at 25° C. After incubation, TR-FRET signal is detected by EnVision plate reader (PerkinElmer). The IC50 values for compounds are calculated from dose-response curves by fitting the percent inhibition using XLfit (ID Business Solutions).

SMILES | IC50 [µM]
Cc1ncc(Cl)cc1C(=O)N[C@H]1CC[C@H](Cn2c(=O)n(-c3cnc4[nH]nc(C)c4c3)c3ccccc32)CC1 [Example 271, 5-chloro-2-methyl-N-((1r,4r)-4-((3-(3-methyl-1H-pyrazolo[3,4-b]pyridin-5-yl)-2-oxo-2,3-dihydro-1H-benzo[d]imidazol-1-yl)methyl)cyclohexyl)nicotinamide] | < 0.3
O=C(N[C@H]1CC[C@H](Cn2c(=O)n(CCOc3ccccc3)c3ncccc32)CC1)c1cc(Cl)cnc1C(F)F [Example 458, 5-chloro-2-(difluoromethyl)-N-((1r,4r)-4-((2-oxo-3-(2-phenoxyethyl)-2,3-dihydro-1H-imidazo[4,5-b]pyridin-1-yl)methyl)cyclohexyl) nicotinamide] | < 0.3
Cc1ccc(-n2c(=O)n(C[C@H]3CC[C@H](NC(=O)c4cc(Cl)cnc4C)CC3)c3cccc(C)c32)cn1 [Example 57, 5-chloro-2-methyl-N-((1r,4r)-4-((4-rrethyl-3-(6-methylpyridin-3-yl)-2-oxo-2,3-dihydro-1H-benzo[d]imidazol-1-yl)methyl)cyclohexyl)nicotinamide] | < 0.3
Cc1ncc(Cl)cc1C(=O)N[C@H]1CC[C@H](Cn2c(=O)n(-c3ccc4c(c3)oc(=O)n4C)c3ccccc32)CC1 [Example 164, 5-chloro-2-methyl-N-((1r,4r)-4-((3-(3-methyl-2-oxo-2,3-dihydrobenzo[d]oxazol-6-yl)-2-oxo-2,3-dihydro-1H-benzo [d]imidazol-1-yl)methyl)cyclo-hexyl)nicotinamide] | < 0.3
CNc1ccc(-n2c(=O)n(C[C@H]3CC[C@H](NC(=O)c4cc(Cl)cnc4C)CC3)c3ccccc32)c(C)n1 [Example 150, 5-chloro-2-methyl-N-((1r,4r)-4-((3-(2-methyl-6-(methylamino)pyridin-3-yl)-2-oxo-2,3-dihydro-1H-benzo[d]imidazol-1-yl)methyl)cyclohexyl)nicotinamide] | < 0.3
COC1CN(c2ccc(-n3c(=O)n(C[C@H]4CC[C@H](NC(=O)c5cc(Cl)cnc5C(F)F)CC4)c4ccccc43)cn2)C1 [Example 554, 5-chloro-2-(difluoromethyl)-N-((1r,4r)-4-((3-(6-(3-methoxyazetidin-1-yl)pyridin-3-yl)-2-oxo-2,3-dihydro-1H-benzo[d]imidazol-1-yl)methyl)cyclohexyl)nicotinamide] | < 0.3
O=C(N[C@H]1CC[C@H](Cn2c(=O)n(-c3ccc4ncsc4c3)c3ncccc32)CC1)c1cc(Cl)cnc1C(F)F [Example 387, N-((1r,4r)-4-((3-(benzo[d]thiazol-6-yl)-2-oxo-2,3-dihydro-1H-imidazo[4,5-b]pyridin-1-yl)methyl)cyclo-hexyl)-5-chloro-2-(difluoro-methyl)nicotinamide] | < 0.3
COc1ncc(-n2c(=O)n(C[C@H]3CC[C@H](NC(=O)c4cc(Cl)cnc4C)CC3)c3ccccc32)cc1C [Example 120, 5-chloro-N-((1r,4r)-4-((3-(6-methoxy-5-methylpyridin-3-yl)-2-oxo-2,3-dihydro-1H-benzo[d]imidazol-1-yl)methyl)cyclohexyl)-2-methylnicotinamide] | < 0.3
Cc1ncc(Cl)cc1C(=O)N[C@H]1CC[C@H](Cn2c(=O)n(-c3ccc4c(CO)noc4c3)c3ccccc32)CC1 [Example 261, 5-chloro-N-((1r,4r)-4-((3-(3-(hydroxymethyl)benzo[d]isoxazol-6-yl)-2-oxo-2,3-dihydro-1H-benzo[d]imidazol-1-yl)methyl)cyclohexyl)-2-methylnicotinamide] | < 0.3
Cc1ncc(Cl)cc1C(=O)N[C@H]1CC[C@H](Cn2c(=O)n(-c3ccc(-c4cnn(C)c4)nc3)c3ccccc32)CC1 [Example 214, 5-chloro-2-methyl-N-((1r,4r)-4-((3-(6-(1-methyl-1H-pyrazol-4-yl)pyridin-3-yl)-2-oxo-2,3-dihydro-1H-benzo[d]imidazol-1-yl)methyl)cyclohexyl)nico-tinamide] | < 0.3
Cc1cc(-n2c(=O)n(C[C@H]3CC[C@H](NC(=O)c4cc(Cl)cnc4C)CC3)c3ccccc32)c(C)cn1 [Example 336, 5-chloro-N-((1r,4r)-4-((3-(2,5-dimethylpyridin-4-yl)-2-oxo-2,3-dihydro-1H-benzo[d]imidazol-1-yl)methyl)cyclohexyl)-2-methylnicotinamide] | < 0.3
Cn1cc2c(-n3c(=O)n(C[C@H]4CC[C@H](NC(=O)c5cc(Cl)cnc5C(F)F)CC4)c4ccccc43)cccc2n1 [Example 421, 5-chloro-2-(difluoromethyl)-N-((1r,4r)-4-((3-(2-methyl-2H-indazol-4-yl)-2-oxo-2,3-dihydro-1H-benzo[d]imidazol-1-yl)methyl)cyclohexyl)nicotinamide] | < 0.3
Cc1ncc(Cl)cc1C(=O)N[C@H]1CC[C@H](Cn2c(=O)n(-c3cncc4ccccc34)c3ccccc32)CC1 [Example 338, 5-chloro-N-((1r,4r)-4-((3-(isoquinolin-4-yl)-2-oxo-2,3-dihydro-1H-benzo[d]imidazol-1-yl)methyl)cyclo-hexyl)-2-methylnicotinamide] | < 0.3

The next lines start with the values.

IC50 [µM] | SMILES
< 0.3 | CNc1cccc(-n2c(=O)n(C[C@H]3CC[C@H](NC(=O)c4cc(Cl)cnc4C(F)F)CC3)c3ccccc32)n1 [Example 662, 5-chloro-2-(difluoromethyl)-N-((1r,4r)-4-((3-(6-(methylamino)pyridin-2-yl)-2-oxo-2,3-dihydro-1H-benzo[d]imidazol-1-yl)methyl)cyclohexyl)nicotinamide]
< 0.3 | CN1CCN(c2cccc(-n3c(=O)n(C[C@H]4CC[C@H](NC(=O)c5cc(Cl)cnc5C(F)F)CC4)c4ccccc43)n2)C1=O [Example 774, 5-chloro-2-(difluoromethyl)-N-((1r,4r)-4-((3-(6-(3-methyl-2-oxoimidazolidin-1-yl)pyridin-2-yl)-2-oxo-2,3-dihydro-1H-benzo[d]imidazol-1-yl)methyl)cyclohexyl) nicotinamide]
< 0.3 | O=C(N[C@H]1CC[C@H](Cn2c(=O)n(-c3ccc(NCCO)nc3)c3ccccc32)CC1)c1cc(Cl)cnc1C(F)F [Example 571, 5-chloro-2-(difluoromethyl)-N-((1r,4r)-4-((3-(6-((2-hydroxyethyl)amino)pyridin-3-yl)-2-oxo-2,3-dihydro-1H-benzo[d]imidazol-1-yl)methyl)cyclohexyl)nicotinamide]
< 0.3 | Cc1ncc(Cl)cc1C(=O)N[C@H]1CC[C@H](Cn2c(=O)n(-c3cncc(-c4ccn(C)n4)c3)c3ccccc32)CC1 [Example 652, 5-chloro-2-methyl-N-((1r,4r)-4-((3-(5-(1-methyl-1H-pyrazol-3-yl)pyridin-3-yl)-2-oxo-2,3-dihydro-1H-benzo[d]imidazol-1-yl)methyl)cyclohexyl)nicotinamide]
< 0.3 | O=C(N[C@H]1CC[C@H](Cn2c(=O)n(-c3ccnc(-c4cnco4)c3)c3ccccc32)CC1)c1cc(Cl)cnc1C(F)F [Example 687, 5-chloro-2-(difluoromethyl)-N-((1r,4r)-4-((3-(2-(oxazol-5-yl)pyridin-4-yl)-2-oxo-2,3-dihydro-1H-benzo[d]imidazol-1-yl)methyl)cyclohexyl) nicotinamide]
< 0.3 | CN1CCN(c2ccc(-n3c(=O)n(C[C@H]4CC[C@H](NC(=O)c5cc(Cl)cnc5C(F)F)CC4)c4ccccc43)nc2)C1=O [Example 735, 5-chloro-2-(difluoromethyl)-N-((1r,4r)-4-((3-(5-(3-methyl-2-oxoimidazolidin-1-yl)pyridin-2-yl)-2-oxo-2,3-dihydro-1H-benzo[d]imidazol-1-yl)methyl)cyclohexyl) nicotinamide]
< 0.3 | COc1ccc(-n2c(=O)n(C[C@H]3CC[C@H](NC(=O)c4cc(Cl)cnc4C(F)F)CC3)c3cccnc32)cc1F [Example 710, 5-chloro-2-(difluoromethyl)-N-((1r,4r)-4-((3-(3-fluoro-4-methoxyphenyl)-2-oxo-2,3-dihydro-1H-imidazo[4,5-b]pyridin-1-yl)methyl)cyclo-hexyl)nicotinamide]
< 0.3 | O=C(N[C@H]1CC[C@H](Cn2c(=O)n(-c3ccc(-c4ncc[nH]4)cc3)c3ccccc32)CC1)c1cc(Cl)cnc1C(F)F [Example 743, N-((1r,4r)-4-((3-(4-(1H-imidazol-2-yl)phenyl)-2-oxo-2,3-dihydro-1H-benzo[d]imidazol-1-yl)methyl)cyclohexyl)-5-chloro-2-(difluoromethyl)nicotinamide]
